Reference: US20250255841A1, “METHODS FOR TREATING CYTOKINE STORM ASSOCIATED WITH ACINETOBACTER BAUMANNII INFECTIONS” (City University of Hong Kong, priority 2024, published 2025)

Legend:
ATCC17978-infected mice = assay: Mouse sepsis infection model with immunosuppressive drug treatment (survival, body weight, spleen weight); assay type: in vivo, C57BL/6 mice; conditions: for survival rate of ATCC17978-infected mice: intraperitoneal drug
Protocol: (§1) The mouse infection model was employed to detect the immune response induced by Ab in vivo. Mice of the same sex were randomly divided into several groups (5 animals per group) and then infected by 7.5×10^7 CFU of Ab test strain by intraperitoneal administration. The body weight of all mice was recorded before infection and at 12 hours post-infection. Survival of the test animals was determined by recording the mortality rate during the 120-hour experiment. At 12 hpi, the mice were sacrificed, and the organs were collected and homogenized for bacterial load measurement and analysis by flow cytometry, RNAseq, scRNAseq and qRT-PCR assay. The serum of the mice was collected for ELISA detection. Animal experiments were conducted at least twice to assess the consistency of the data.
To test the effect of NSAIDs treatment, the mice were administered intraperitoneal injections of 50 mg/kg NPXS and 100 mg/kg ASA 1 h before ATCC 17978 infection; a group of mice that served as control received equivalent volumes of PBS. The survival rate, health status, and weight of the test animals were recorded during the next 120 hours.

[1] = test system: serum cytokine production (TNF-α, IL-6 and IL-1b); conditions: Ab-infected mice, ELISA
Protocol: as §1
Blood was collected from the test mice by orbital bleeding and clotted at RT for 1 h. Blood was subsequently subjected to centrifugation at 10,000 g for 25 min at 4° C. Serum was divided into tubes and stored immediately at −80° C. until cytokine analysis.
The enzyme-linked immunosorbent assay (ELISA) was used to perform cytokine analysis in mouse serum and cell supernatants. Mouse serum was extracted as described above. Pre-treated macrophage cell supernatants were harvested and centrifuged to remove impurities. The levels of IL1β, IL6, and TNF-α were measured by using the IL-1 beta, IL-6 and TNF alpha Mouse Uncoated ELISA Kit (Thermo Fisher Scientific) according to the manufacturer's protocols, respectively.

[2] = test system: pro-inflammatory, COX and TLR2/Myd88/NF-κB signaling pathway-related genes
Protocol: as §1
Total RNA was extracted from the homogenized lung samples or RAW264.7 cells (ATCC, CA, USA) upon Ab infection, utilizing the TRIzol™ method (Thermo Fisher Scientific, MA, USA). Turbo DNA-free™ Kit (Invitrogen, CA, USA) was employed for removal of DNA contaminants. 1 μg purified mRNA was reverse transcribed into cDNA using SuperScript™ III First-Strand Synthesis SuperMix Kit (Invitrogen), with a 1:10 dilution for subsequent qRT-PCR analysis. The qRT-PCR was then performed on an ABI QuantStudio 7 Flex Real-Time PCR System (Applied Biosystems, CA, USA) by the PowerUP SYBR Green master mix (Applied Biosystems). The target gene transcription levels were quantified by the comparative Ct method and normalized to the expression level of glyceraldehyde-3-phosphate dehydrogenase (GADPH).
Total RNA extracted from lung samples was sequenced by Novogene Technology (Hong Kong SAR, China). Bioanalyzer 2100 system was used to measure RNA integrity (Agilent Technologies, CA, USA); the NEBNextUltra RNA Library Prep Kit (NEB, CA, USA) was employed to construct the cDNA libraries for Illumina sequencing. The index-coded samples clustering was carried out on a cBot Cluster Generation System by the TruSeq PE Cluster Kit v3-cBot-HS (Illumia, CA, Illumia). The libraries were sequenced on the Illumina Novaseq platform with paired-end 150 bp reads. HISAT2 was used for sequencing reads alignment. Fragments per gene were counted based on exon regions with FeatureCounts v.1.6.243. Differential mRNA level analysis was carried on by the DESeq2 R package. Unigenes with P.adjust<0.05 and |Log2Fold Change|>1 could be described as differentially expressed genes. Gene Enrichment Analysis was conducted for gene ontology enrichment analysis.

[3] = test system: CD11b+F4/80+ macrophages in the lungs of Ab-infected mice
Protocol: as §1

RAW264.7 cells = assay: Inhibitor treatment in RAW264.7 infected with ATCC 17978, flow cytometry of CD86/CD206; assay type: cell-based, mouse; conditions: RAW264.7 pretreated 1 h, Ab MOI=5 for 6 h; compared to cells not treated with the inhibitors
Protocol: RAW264.7 cells were pre-treated for 1 h with the culture medium, C29 (100 μM)^22, TJ-M2010-5 (20 μM)^23 and JSH-23 (30 μM)^24 (MCE, NJ, USA) respectively, and then stimulated with Ab (MOI=5) for 6 h in the presence of the culture medium, C29, TJ-M2010-5 or JSH-23. Cell supernatants were collected for subsequent cytokine measurement. RAW264.7 cells were incubated with fluorescently labeled antibodies against mouse F4/80, CD206, and CD86 for flow cytometric analysis, following washes three times with PBS and resuspension in PBS containing 2.5% FBS.

[4] = RNA-seq, ATCC 17978-infected mice after NPXS treatment, stated as suppressed

CC(=O)Oc1ccccc1C(=O)O [ASA, acetylsalicylic acid]
survival rate of ATCC17978-infected mice (ATCC17978-infected mice; at 24 h): 60%
anti-inflammatory potency recorded during Ab infection (ATCC17978-infected mice; comparison with naproxen): inferior to that of naproxen

COc1ccc2cc([C@H](C)C(=O)O)ccc2c1 [NPXS, (+)-(S)-2-(6-methoxynaphthalen-2-yl) propanoic acid]
reduction of serum IL-1b production [1]: more than 50 fold
reduction of serum IL-6 production [1]: more than 50 fold
reduction of serum TNF-α production [1]: more than 50 fold
relative expression of TLR2/Myd88/NF-κB signaling pathway-related genes ([2]; ATCC 17978-infected mice after NPXS treatment): further reduction
transcript levels of most pro-inflammatory genes ([2]; Ab-infected mice, lungs): significantly lower
expression of COX1 gene, Log2FC [2, 4]: 0.4194
expression of COX2 gene, Log2FC [2, 4]: 0.2429
extent of body weight loss (ATCC17978-infected mice; 12 hpi, on average, infected untreated 6.7%): 3.6%
splenomegaly (percentage of spleen weight) (ATCC17978-infected mice; on average, infected untreated 0.48%): 0.38%
infected mice protected from death (ATCC17978-infected mice; within 120 h, 50 mg/kg i.p. 1 h before infection): 100%
CD86 MFI levels (M1 polarization) ([3]; F4/80+ macrophages in the lungs of Ab-infected mice): effectively attenuated
infiltration of CD11b+F4/80+ macrophages ([3]; lungs of Ab-infected mice): did not result in decrease

C[C@@H]1C[C@H]2[C@@H]3CCC4=CC(=O)C=C[C@]4(C)[C@@]3(F)[C@@H](O)C[C@]2(C)[C@@]1(O)C(=O)CO [DXMS, dexamethasone]
survival rate of ATCC17978-infected mice (ATCC17978-infected mice; at 48 h): 40%

Cn1cnc([N+](=O)[O-])c1Sc1ncnc2nc[nH]c12 [AzA, azathioprine]
survival rate of ATCC17978-infected mice (ATCC17978-infected mice; at 36 h): 40%

O=C(CCN1CCN(Cc2ccccc2)CC1)Nc1nc(-c2ccccc2)cs1 [TJ-M2010-5]
CD86 MFI levels (RAW264.7 cells): decrease
CD206 MFI levels (RAW264.7 cells): no difference

Cc1ccc(NCCCc2ccccc2)c(N)c1 [JSH-23]
CD86 MFI levels (RAW264.7 cells): decrease
CD206 MFI levels (RAW264.7 cells): no difference
